Results published in patent US20090298820A1, “3-SUBSTITUTED-1H-PYRROLO[2,3-B]PYRIDINE AND 3-SUBSTITUTED-1H-PYRROLO[3,2-B]PYRIDINE COMPOUNDS, THEIR USE AS MTOR KINASE AND PI3 KINASE INHIBITORS, AND THEIR SYNTHESES” (Wyeth, priority 2008, published 2009).
Where two headings read alike, the source gives them in different places.

Experiments:
Type in all cases: biochemical
PI3Kα = PI3Kα (Homo sapiens, UniProt P42336); assay: PI3K-alpha fluorescence polarization assay; details: read-out: PI3Kα Median IC50
PI3Kγ = PI3Kγ (Homo sapiens, UniProt P48736); assay: PI3K-gamma fluorescence polarization assay; details: read-out: PI3Kγ Median IC50
mTOR = mTOR (Homo sapiens, UniProt P42345); assay: mTOR enzyme assay (DELFIA format, His6-S6K substrate)
[1] = read-out: mTOR Kinase Median IC50

Sequence of PI3Kγ (P48736 whole entry, species assumed): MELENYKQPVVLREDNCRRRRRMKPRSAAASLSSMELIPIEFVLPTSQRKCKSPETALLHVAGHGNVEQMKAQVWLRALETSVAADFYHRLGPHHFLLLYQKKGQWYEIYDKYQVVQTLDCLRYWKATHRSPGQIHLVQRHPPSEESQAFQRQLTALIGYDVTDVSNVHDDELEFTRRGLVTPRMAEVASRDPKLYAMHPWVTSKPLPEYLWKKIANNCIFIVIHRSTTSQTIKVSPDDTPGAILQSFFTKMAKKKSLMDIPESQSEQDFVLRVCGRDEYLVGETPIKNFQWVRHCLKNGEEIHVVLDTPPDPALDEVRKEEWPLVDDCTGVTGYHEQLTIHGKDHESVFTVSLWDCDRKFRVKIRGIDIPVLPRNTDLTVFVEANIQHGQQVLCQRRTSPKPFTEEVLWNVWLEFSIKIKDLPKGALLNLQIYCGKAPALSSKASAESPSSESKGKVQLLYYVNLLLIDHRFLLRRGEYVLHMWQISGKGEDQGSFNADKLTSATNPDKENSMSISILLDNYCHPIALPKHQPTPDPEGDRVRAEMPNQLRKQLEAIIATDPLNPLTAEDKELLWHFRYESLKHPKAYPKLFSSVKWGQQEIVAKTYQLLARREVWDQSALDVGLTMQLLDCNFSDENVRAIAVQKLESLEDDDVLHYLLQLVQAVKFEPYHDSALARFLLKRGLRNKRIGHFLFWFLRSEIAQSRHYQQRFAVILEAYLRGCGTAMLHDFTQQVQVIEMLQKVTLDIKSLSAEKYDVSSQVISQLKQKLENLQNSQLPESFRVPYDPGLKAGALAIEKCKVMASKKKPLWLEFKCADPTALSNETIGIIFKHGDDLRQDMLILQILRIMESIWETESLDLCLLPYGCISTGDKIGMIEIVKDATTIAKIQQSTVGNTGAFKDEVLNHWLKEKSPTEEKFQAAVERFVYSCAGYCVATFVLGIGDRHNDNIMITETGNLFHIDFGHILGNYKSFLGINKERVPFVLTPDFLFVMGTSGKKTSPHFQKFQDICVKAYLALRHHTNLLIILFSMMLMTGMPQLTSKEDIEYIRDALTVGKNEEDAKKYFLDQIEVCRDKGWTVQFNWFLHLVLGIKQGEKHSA
Sequence of PI3Kα (P42336 whole entry, species assumed): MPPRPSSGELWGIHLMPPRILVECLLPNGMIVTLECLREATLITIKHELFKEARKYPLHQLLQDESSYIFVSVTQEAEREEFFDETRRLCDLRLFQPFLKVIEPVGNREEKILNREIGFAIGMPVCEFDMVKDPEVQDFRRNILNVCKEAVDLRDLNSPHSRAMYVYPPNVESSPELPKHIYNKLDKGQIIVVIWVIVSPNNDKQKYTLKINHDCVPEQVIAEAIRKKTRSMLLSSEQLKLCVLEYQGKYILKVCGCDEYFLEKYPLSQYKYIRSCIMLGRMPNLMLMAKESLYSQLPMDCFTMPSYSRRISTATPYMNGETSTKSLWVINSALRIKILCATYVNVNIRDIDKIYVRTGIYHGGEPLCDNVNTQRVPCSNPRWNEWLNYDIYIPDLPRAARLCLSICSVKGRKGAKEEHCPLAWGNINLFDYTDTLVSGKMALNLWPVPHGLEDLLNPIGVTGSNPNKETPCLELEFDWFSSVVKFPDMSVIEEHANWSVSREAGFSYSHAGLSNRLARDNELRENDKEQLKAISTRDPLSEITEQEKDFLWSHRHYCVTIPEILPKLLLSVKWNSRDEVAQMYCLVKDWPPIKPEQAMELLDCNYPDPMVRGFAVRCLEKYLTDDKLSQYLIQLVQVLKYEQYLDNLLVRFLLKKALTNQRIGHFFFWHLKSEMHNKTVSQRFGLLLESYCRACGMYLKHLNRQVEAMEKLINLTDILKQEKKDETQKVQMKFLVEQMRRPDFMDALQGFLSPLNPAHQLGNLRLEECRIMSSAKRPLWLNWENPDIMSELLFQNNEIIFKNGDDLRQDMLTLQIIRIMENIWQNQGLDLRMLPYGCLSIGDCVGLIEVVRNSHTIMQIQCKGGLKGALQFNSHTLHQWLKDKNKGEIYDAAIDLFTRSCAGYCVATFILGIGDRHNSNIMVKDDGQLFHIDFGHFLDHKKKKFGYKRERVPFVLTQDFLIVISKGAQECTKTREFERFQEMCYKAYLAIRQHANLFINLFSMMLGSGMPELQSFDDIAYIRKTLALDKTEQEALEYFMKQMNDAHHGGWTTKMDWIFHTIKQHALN
Sequence of PI3Kα (P27986 whole entry partner, species assumed): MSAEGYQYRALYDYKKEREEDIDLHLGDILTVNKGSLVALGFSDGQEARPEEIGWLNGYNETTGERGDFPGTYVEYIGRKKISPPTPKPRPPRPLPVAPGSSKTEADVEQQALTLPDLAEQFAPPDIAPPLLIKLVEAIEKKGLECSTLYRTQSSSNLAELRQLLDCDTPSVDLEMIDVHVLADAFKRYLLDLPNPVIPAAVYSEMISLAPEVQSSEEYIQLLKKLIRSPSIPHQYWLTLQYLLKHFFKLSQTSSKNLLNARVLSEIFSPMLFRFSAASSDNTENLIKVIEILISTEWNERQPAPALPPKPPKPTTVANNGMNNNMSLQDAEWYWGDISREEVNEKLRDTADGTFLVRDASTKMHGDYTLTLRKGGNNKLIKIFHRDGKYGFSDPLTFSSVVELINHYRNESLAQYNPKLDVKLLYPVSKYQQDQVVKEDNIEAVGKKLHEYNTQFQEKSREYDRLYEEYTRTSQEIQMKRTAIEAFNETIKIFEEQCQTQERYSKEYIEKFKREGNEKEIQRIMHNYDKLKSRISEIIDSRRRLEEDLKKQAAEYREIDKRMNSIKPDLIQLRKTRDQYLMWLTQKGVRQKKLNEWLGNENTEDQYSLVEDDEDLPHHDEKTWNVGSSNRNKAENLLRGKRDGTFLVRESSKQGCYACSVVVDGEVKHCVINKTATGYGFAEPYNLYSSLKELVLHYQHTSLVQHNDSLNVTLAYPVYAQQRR

| IC50 (PI3Kα) | IC50 (PI3Kγ) | IC50 (mTOR; [1]) | Structure (SMILES) | IC50 (mTOR) |
| --- | --- | --- | --- | --- |
| 976 nM | 479 nM | 1650 nM | CONC(=O)c1ccc(-c2ccnc3c2c(/C=C2\Oc4ccc(NC(=O)Nc5cccnc5)cc4C2=O)cn3C)cc1 [Compound 248, N-methoxy-4-{1-methyl-3-[(Z)-{3-oxo-5-[(pyridin-3-ylcarbamoyl)amino]-1-benzofuran-2(3H)-ylidene}methyl]-1H-pyrrolo[2,3-b]pyridin-4-yl}benzamide] |  |
| > 10000 nM | 9280 nM | 102 nM | CN(Cc1ccccc1)C(=O)C1CCN(c2ccnc3c2c(C=C2Oc4ccc(NC(=O)Nc5cccnc5)cc4C2=O)cn3C)CC1 [Compound 215, N-benzyl-N-methyl-1-[1-methyl-3-({3-oxo-5-[(pyridin-3-ylcarbamoyl)amino]-1-benzofuran-2(3H)-ylidene}methyl)-1H-pyrrolo[2,3-b]pyridin-4-yl]piperidine-4-carboxamide] |  |
| 95 nM | 93 nM | 0.5 nM | Cn1cc(/C=C2\Oc3cc(O)cc(O)c3C2=O)c2c(-c3ccccc3)ccnc21 [Compound 24, (2Z)-4,6-dihydroxy-2-[(1-methyl-4-phenyl-1H-pyrrolo[2,3-b]pyridin-3-yl)methylene]-1-benzofuran-3(2H)-one] |  |
| 28 nM | 79 nM | 1.6 nM | COc1ccc(-c2ccnc3c2c(/C=C2\Oc4cccc(O)c4C2=O)cn3C)cc1S(=O)(=O)N1CCOCC1 [Compound 81, (2Z)-4-hydroxy-2-({4-[4-methoxy-3-(morpholin-4-ylsulfonyl)phenyl]-1-methyl-1H-pyrrolo[2,3-b]pyridin-3-yl}methylene)-1-benzofuran-3(2H)-one] |  |
| 2220 nM | > 10000 nM | 29 nM | Cn1cc(/C=C2\Oc3ccc(NC(=O)Nc4ccc(N5CCOCC5)nc4)cc3C2=O)c2c(N3CC4CCC(C3)O4)ccnc21 [Compound 219, 1-[(2Z)-2-{[1-methyl-4-(8-oxa-3-azabicyclo[3.2.1]oct-3-yl)-1H-pyrrolo[2,3-b]pyridin-3-yl]methylidene}-3-oxo-2,3-dihydro-1-benzofuran-5-yl]-3-(6-morpholin-4-ylpyridin-3-yl)urea] |  |
| 12 nM | 131 nM | 0.3 nM | Cn1cc(/C=C2\Oc3cc(O)cc(O)c3C2=O)c2c(N3CCOCC3)ccnc21 [Compound 45, (2Z)-4,6-dihydroxy-2-[(1-methyl-4-morpholin-4-yl-1H-pyrrolo[2,3-b]pyridin-3-yl)methylene]-1-benzofuran-3(2H)-one] |  |
| 921 nM | 1140 nM | 22.5 nM | C#CCN(C)C(=O)C1CCN(c2ccnc3c2c(/C=C2\Oc4ccc(NC(=O)Nc5cccnc5)cc4C2=O)cn3C)CC1 [Compound 226, N-methyl-1-{1-methyl-3-[(Z)-{3-oxo-5-[(pyridin-3-ylcarbamoyl)amino]-1-benzofuran-2(3H)-ylidene}methyl]-1H-pyrrolo[2,3-b]pyridin-4-yl}-N-prop-2-yn-1-ylpiperidine-4-carboxamide] |  |
| 5620 nM | 1730 nM | 10 nM | Cn1cc(C=C2Oc3ccc(NC(=O)Nc4cccnc4)cc3C2=O)c2c(N3CCC(C(=O)N4CC=CC4)CC3)ccnc21 [Compound 204, 1-[2-({4-[4-(2,5-dihydro-1H-pyrrol-1-ylcarbonyl)piperidin-1-yl]-1-methyl-1H-pyrrolo[2,3-b]pyridin-3-yl}methylidene)-3-oxo-2,3-dihydro-1-benzofuran-5-yl]-3-pyridin-3-ylurea] |  |
| 4600 nM | 1250 nM | 7 nM | CN1CCN(C(=O)C2CCN(c3ccnc4c3c(/C=C3\Oc5ccc(NC(=O)Nc6cccnc6)cc5C3=O)cn4C)CC2)CC1 [Compound 252, 1-{(2Z)-2-[(1-methyl-4-{4-[(4-methylpiperazin-1-yl)carbonyl]piperidin-1-yl}-1H-pyrrolo[2,3-b]pyridin-3-yl)methylidene]-3-oxo-2,3-dihydro-1-benzofuran-5-yl}-3-pyridin-3-ylurea] |  |
| 2720 nM | 1110 nM | 165 nM | CN(C(=O)C1CCN(c2ccnc3c2c(/C=C2\Oc4ccc(NC(=O)Nc5cccnc5)cc4C2=O)cn3C)CC1)C1CCCC1 [Compound 227, N-cyclopentyl-N-methyl-1-{1-methyl-3-[(Z)-{3-oxo-5-[(pyridin-3-ylcarbamoyl)amino]-1-benzofuran-2(3H)-ylidene}methyl]-1H-pyrrolo[2,3-b]pyridin-4-yl}piperidine-4-carboxamide] |  |
| 4010 nM | > 10000 nM | 97 nM | CN(C)C(=O)C1CCN(c2ccnc3c2c(/C=C2\Oc4ccc(NC(=O)Nc5ccc(N6CCOCC6)nc5)cc4C2=O)cn3C)CC1 [Compound 217, N,N-dimethyl-1-(1-methyl-3-{(Z)-[5-{[(6-morpholin-4-ylpyridin-3-yl)carbamoyl]amino}-3-oxo-1-benzofuran-2(3H)-ylidene]methyl}-1H-pyrrolo[2,3-b]pyridin-4-yl)piperidine-4-carboxamide] |  |
| 36 nM | 74 nM | 0.7 nM | Cn1cc(/C=C2\Oc3cccc(O)c3C2=O)c2c(-c3ccc(C(=O)N4CCCC4)cc3)ccnc21 [Compound 91, (2Z)-4-hydroxy-2-({1-methyl-4-[4-(pyrrolidin-1-ylcarbonyl)phenyl]-1H-pyrrolo[2,3-b]pyridin-3-yl}methylene)-1-benzofuran-3(2H)-one] |  |
| 415 nM | 2750 nM | 170 nM | CN1CCN(NC(=O)Nc2ccc3c(c2)C(=O)/C(=C/c2cn(C)c4nccc(N5CCC(C(=O)N(C)C)CC5)c24)O3)CC1 [Compound 228, N,N-dimethyl-1-(1-methyl-3-{(Z)-[5-{[(4-methylpiperazin-1-yl)carbamoyl]amino}-3-oxo-1-benzofuran-2(3H)-ylidene]methyl}-1H-pyrrolo[2,3-b]pyridin-4-yl)piperidine-4-carboxamide] |  |
| 1140 nM | > 10000 nM | 160 nM | Cn1cncc1CNC(=O)Nc1ccc2c(c1)C(=O)/C(=C/c1cn(C)c3nccc(N4CC5CCC(C4)O5)c13)O2 [Compound 232, 1-[(1-methyl-1H-imidazol-5-yl)methyl]-3-[(2Z)-2-{[1-methyl-4-(8-oxa-3-azabicyclo[3.2.1]oct-3-yl)-1H-pyrrolo[2,3-b]pyridin-3-yl]methylidene}-3-oxo-2,3-dihydro-1-benzofuran-5-yl]urea] |  |
| 11 nM | 70 nM | 0.1 nM | Cn1cc(/C=C2\Oc3cc(O)cc(O)c3C2=O)c2c(N3CC4CCC(C3)O4)ccnc21 [Compound 54, (2Z)-4,6-dihydroxy-2-{[1-methyl-4-(8-oxa-3-azabicyclo[3.2.1]oct-3-yl)-1H-pyrrolo[2,3-b]pyridin-3-yl]methylene}-1-benzofuran-3(2H)-one] |  |
| 252 nM | 343 nM | 15.5 nM | CNC(=O)Nc1ccc2c(c1)C(=O)/C(=C/c1cn(C)c3nccc(-c4ccc(C(=O)N5CCN(CCO)CC5)cc4)c13)O2 [Compound 166, 1-[(2Z)-2-{[4-(4-{[4-(2-hydroxyethyl)piperazin-1-yl]carbonyl}phenyl)-1-methyl-1H-pyrrolo[2,3-b]pyridin-3-yl]methylidene}-3-oxo-2,3-dihydro-1-benzofuran-5-yl]-3-methylurea] |  |
| 915 nM | > 10000 nM | 62.5 nM | CN(C)CCOc1ccc(NC(=O)Nc2ccc3c(c2)C(=O)/C(=C/c2cn(C)c4nccc(N5CC6CCC(C5)O6)c24)O3)cc1 [Compound 220, 1-{4-[2-(dimethylamino)ethoxy]phenyl}-3-[(2Z)-2-{[1-methyl-4-(8-oxa-3-azabicyclo[3.2.1]oct-3-yl)-1H-pyrrolo[2,3-b]pyridin-3-yl]methylidene}-3-oxo-2,3-dihydro-1-benzofuran-5-yl]urea] |  |
| 613 nM | 231 nM | 30 nM | CN(C)C(=O)C1CCN(c2ccnc3c2c(/C=C2\Oc4ccc(NC(=O)Nc5ccc(CN6CCCCC6)cc5)cc4C2=O)cn3C)CC1 [Compound 216, N,N-dimethyl-1-(1-methyl-3-{(Z)-[3-oxo-5-({[4-(piperidin-1-ylmethyl)phenyl]carbamoyl}amino)-1-benzofuran-2(3H)-ylidene]methyl}-1H-pyrrolo[2,3-b]pyridin-4-yl)piperidine-4-carboxamide] |  |
| 13 nM | 321 nM | 0.7 nM | Cn1cc(/C=C2\Oc3cc(O)cc(O)c3C2=O)c2c(-c3cccc(C(=O)Nc4ccc(F)cc4)c3)ccnc21 [Compound 97, 3-{3-[(Z)-(4,6-dihydroxy-3-oxo-1-benzofuran-2(3H)-ylidene)methyl]-1-methyl-1H-pyrrolo[2,3-b]pyridin-4-yl}-N-(4-fluorophenyl)benzamide] |  |
| > 10000 nM | > 10000 nM | 11.5 nM | CN(C(=O)C1CCN(c2ccnc3c2c(C=C2Oc4ccc(NC(=O)Nc5cccnc5)cc4C2=O)cn3C)CC1)C1CCS(=O)(=O)C1 (stereo not drawn) [Compound 211, N-(1,1-dioxidotetrahydrothiophen-3-yl)-N-methyl-1-[1-methyl-3-({3-oxo-5-[(pyridin-3-ylcarbamoyl)amino]-1-benzofuran-2(3H)-ylidene}methyl)-1H-pyrrolo[2,3-b]pyridin-4-yl]piperidine-4-carboxamide] |  |

| Structure (SMILES) | IC50 (PI3Kα) | IC50 (PI3Kγ) | IC50 (mTOR; [1]) | IC50 (mTOR) |
| --- | --- | --- | --- | --- |
| CNC(=O)Nc1ccc2c(c1)C(=O)/C(=C/c1cn(CCN3CCN(C)CC3)c3ncc(OC)cc13)O2 [Compound 120, 1-[(2Z)-2-({5-methoxy-1-[2-(4-methylpiperazin-1-yl)ethyl]-1H-pyrrolo[2,3-b]pyridin-3-yl}methylene)-3-oxo-2,3-dihydro-1-benzofuran-5-yl]-3-methylurea] | 35 nM | 2380 nM |  | 285 nM |
| Cn1cc(/C=C2\Oc3cc(O)cc(O)c3C2=O)c2c(C3=CCNCC3)ccnc21 [Compound 78, (2Z)-4,6-dihydroxy-2-{[1-methyl-4-(1,2,3,6-tetrahydropyridin-4-yl)-1H-pyrrolo[2,3-b]pyridin-3-yl]methylene}-1-benzofuran-3(2H)-one] | 31 nM | 315 nM | 5 nM |  |
